Experimental data: ChEMBL document CHEMBL1201862, “PubChem BioAssay data set” (2004)
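Following 48 hours of exposure in 96-well plates, responses at five concentrations were used to interpolate endpoints linearly. At the GI50, growth is halved.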 The source made the active and inactive calls. Rule as the data show it: active = GI50 up to about 1.1 µM and inactive = higher.

Key:
Test in all cases: growth of human tumour cells (NCI), 48 h
MDA-MB-231 = test system: MDA-MB-231
SF-539 = test system: SF-539
BT-549 = test system: BT-549
U-251 = test system: U-251
786-0 = test system: 786-0
NCI/ADR-RES = test system: NCI/ADR-RES
A549 = test system: A549
Hs-578T = test system: Hs-578T
NCI-H522 = test system: NCI-H522
HT-29 = test system: HT-29
SK-MEL-5 = test system: SK-MEL-5
NCI-H460 = test system: NCI-H460
HOP-92 = test system: HOP-92
MDA-N = test system: MDA-N
TK-10 = test system: TK-10
M14 = test system: M14
EKVX = test system: EKVX
A498 = test system: A498
Malme-3M = test system: Malme-3M

Measured: GI50

Oc1ccc(/N=N/c2ccc(Cl)cc2)cc1
inactive: MDA-MB-231 10.8 µM | SF-539 18.4 µM | BT-549 15.1 µM | U-251 15.4 µM | 786-0 17.3 µM | NCI/ADR-RES 18.1 µM | A549 14.2 µM | Hs-578T 28.8 µM | NCI-H522 11.6 µM | HT-29 18.3 µM | SK-MEL-5 11.7 µM | NCI-H460 16.9 µM | HOP-92 12.7 µM | MDA-N 16.9 µM | TK-10 18.1 µM | M14 10.7 µM | EKVX 17.3 µM | A498 17.3 µM

COc1cc(-c2oc3c(OC)c(O)c(OC)c(O)c3c(=O)c2OC)cc(OC)c1OC
inactive: MDA-MB-231 73.6 µM | Malme-3M > 100 µM | SF-539 74.3 µM | BT-549 71.8 µM | U-251 47.6 µM | 786-0 32.4 µM | NCI/ADR-RES 62.5 µM | A549 > 100 µM | Hs-578T 14.3 µM | NCI-H522 17.4 µM | HT-29 50.4 µM | SK-MEL-5 14 µM | NCI-H460 39 µM | MDA-N 61.8 µM | TK-10 55.5 µM | M14 14.1 µM | EKVX > 100 µM | A498 51.2 µM

Cc1ccc(O)c(Cc2nc3ccccc3nc2-c2cccc(Cl)c2)c1
inactive: MDA-MB-231 46.3 µM | Malme-3M > 100 µM | SF-539 87.1 µM | BT-549 > 100 µM | U-251 35.4 µM | 786-0 > 100 µM | NCI/ADR-RES 44.1 µM | A549 43.9 µM | Hs-578T 30.6 µM | NCI-H522 20.3 µM | HT-29 44.3 µM | SK-MEL-5 40.2 µM | NCI-H460 54.3 µM | HOP-92 12.5 µM | MDA-N 29.5 µM | TK-10 88.9 µM | M14 > 100 µM | EKVX 34.7 µM

N#CC(NC12CC3CC(CC(C3)C1)C2)c1ccccc1 (stereo not given)
inactive: MDA-MB-231 > 100 µM | Malme-3M > 100 µM | SF-539 > 100 µM | BT-549 > 100 µM | U-251 > 100 µM | 786-0 > 100 µM | NCI/ADR-RES > 100 µM | A549 > 100 µM | Hs-578T > 100 µM | NCI-H522 > 100 µM | HT-29 > 100 µM | SK-MEL-5 > 100 µM | NCI-H460 > 100 µM | HOP-92 94.2 µM | MDA-N > 100 µM | TK-10 > 100 µM | M14 > 100 µM | EKVX > 100 µM

CCCCCC/C=C\CCCCCCCCC(=O)c1cccc(OC)c1OC
inactive: MDA-MB-231 > 100 µM | Malme-3M > 100 µM | SF-539 > 100 µM | BT-549 > 100 µM | U-251 > 100 µM | 786-0 > 100 µM | NCI/ADR-RES 60.8 µM | A549 > 100 µM | Hs-578T 65.2 µM | NCI-H522 44.6 µM | HT-29 41.9 µM | SK-MEL-5 15.2 µM | MDA-N 91.8 µM | TK-10 > 100 µM | M14 > 100 µM | EKVX > 100 µM | A498 26 µM

CCOC(=O)/C(=C\NC(C)(C)C)c1nc2ccccc2[nH]1
inactive: Malme-3M 20.6 µM | SF-539 16.8 µM | BT-549 27.9 µM | 786-0 27.1 µM | NCI/ADR-RES 32 µM | A549 29.4 µM | Hs-578T 19.6 µM | NCI-H522 20.2 µM | HT-29 17.9 µM | SK-MEL-5 12.9 µM | NCI-H460 17.7 µM | HOP-92 25.2 µM | MDA-N 22.9 µM | TK-10 14 µM | M14 20.1 µM | EKVX 12.2 µM | A498 25.1 µM

CC(=O)OCC(OC(C)=O)C(OC(C)=O)C(OC(C)=O)C(/C=N\Nc1nc2ccccc2c(=O)[nH]1)=N/Nc1nc2ccccc2c(=O)[nH]1 (stereo not given)
inactive: MDA-MB-231 > 100 µM | Malme-3M > 100 µM | SF-539 18.2 µM | BT-549 > 100 µM | U-251 > 100 µM | 786-0 > 100 µM | NCI/ADR-RES > 100 µM | A549 > 100 µM | Hs-578T > 100 µM | NCI-H522 > 100 µM | HT-29 > 100 µM | SK-MEL-5 > 100 µM | NCI-H460 > 100 µM | HOP-92 > 100 µM | MDA-N > 100 µM | M14 > 100 µM | EKVX > 100 µM

N=C(N)NCCCC(NC(=O)OCCCCn1ccc(N)nc1=O)C(=O)O (stereo not given)
inactive: MDA-MB-231 > 100 µM | SF-539 > 100 µM | BT-549 > 100 µM | U-251 > 100 µM | 786-0 > 100 µM | NCI/ADR-RES > 100 µM | A549 > 100 µM | Hs-578T > 100 µM | HT-29 > 100 µM | NCI-H460 > 100 µM | HOP-92 > 100 µM | MDA-N > 100 µM | TK-10 > 100 µM | M14 > 100 µM | EKVX > 100 µM | A498 > 100 µM

C[N+]12C=CC=C1C(N1CCCC1)c1scc(-c3ccccc3)c12 (stereo not given)
inactive: MDA-MB-231 37.8 µM | Malme-3M 11.8 µM | BT-549 4.25 µM | U-251 5.92 µM | 786-0 47.4 µM | NCI/ADR-RES > 100 µM | A549 59.8 µM | Hs-578T 9.84 µM | NCI-H522 3.28 µM | HT-29 8.65 µM | SK-MEL-5 11.9 µM | MDA-N 18.8 µM | M14 50.2 µM | EKVX 14.5 µM | A498 38.5 µM

CN1[C@@H]2CCCC[C@H]2N(C)P1(=O)C(O)/C=C/c1ccccc1 (stereo not given in full)
inactive: MDA-MB-231 > 100 µM | Malme-3M > 100 µM | BT-549 > 100 µM | U-251 > 100 µM | 786-0 > 100 µM | NCI/ADR-RES > 100 µM | A549 > 100 µM | Hs-578T > 100 µM | NCI-H522 > 100 µM | HT-29 > 100 µM | SK-MEL-5 > 100 µM | NCI-H460 > 100 µM | HOP-92 > 100 µM | MDA-N > 100 µM | TK-10 > 100 µM | M14 > 100 µM | EKVX > 100 µM | A498 > 100 µM

COc1ccccc1NC(=O)O/N=C(/Cl)C(C)C
inactive: MDA-MB-231 7.19 µM | Malme-3M 2.78 µM | SF-539 19.5 µM | BT-549 3.48 µM | U-251 16.7 µM | 786-0 11.9 µM | NCI/ADR-RES 15.3 µM | A549 18.2 µM | Hs-578T 24.9 µM | NCI-H522 1.81 µM | HT-29 3.49 µM | SK-MEL-5 11.8 µM | NCI-H460 19.3 µM | MDA-N 13.6 µM | TK-10 13.6 µM | M14 5.9 µM | EKVX 16.1 µM | A498 15.6 µM

CCOP1(=O)C=C(Sc2ccc([N+](=O)[O-])cc2[N+](=O)[O-])C(C)(C)O1 (stereo not given)
inactive: Malme-3M 12 µM | SF-539 11.7 µM | BT-549 17.5 µM | U-251 14.9 µM | 786-0 8.81 µM | NCI/ADR-RES 25.3 µM | A549 19.9 µM | Hs-578T 26.7 µM | NCI-H522 3.64 µM | HT-29 8.39 µM | SK-MEL-5 9.86 µM | NCI-H460 21 µM | HOP-92 7.26 µM | MDA-N 5.07 µM | TK-10 17.1 µM | M14 11.9 µM | EKVX 14.4 µM | A498 25.6 µM

O=C1c2ccc3c4ccc5c6c(ccc(c7ccc(c2c37)C(=O)N1CCN1CCCCC1)c64)C(=O)N(CCN1CCCCC1)C5=O
inactive: SF-539 > 100 µM | BT-549 > 100 µM | U-251 > 100 µM | 786-0 > 100 µM | NCI/ADR-RES > 100 µM | A549 > 100 µM | Hs-578T > 100 µM | HT-29 > 100 µM | SK-MEL-5 > 100 µM | NCI-H460 > 100 µM | HOP-92 > 100 µM | MDA-N > 100 µM | TK-10 > 100 µM | M14 > 100 µM | EKVX > 100 µM | A498 > 100 µM

CN(C)CCNC(=O)c1cc([N+](=O)[O-])ccn1
inactive: MDA-MB-231 25.4 µM | Malme-3M 14.8 µM | SF-539 22.8 µM | BT-549 84.5 µM | U-251 31 µM | 786-0 42.5 µM | A549 30.8 µM | Hs-578T 46.8 µM | NCI-H522 18.1 µM | HT-29 11.4 µM | SK-MEL-5 18.6 µM | NCI-H460 38.1 µM | MDA-N 16.7 µM | TK-10 > 100 µM | M14 36.7 µM | EKVX > 100 µM | A498 > 100 µM

CC(C)=CC(=O)O[C@@H]1CC(C)(C)CC2C3=CCC4[C@]56CC[C@](O)(OC5)C(C)(C)C6CC[C@@]4(C)C3(C)CC[C@]21C(=O)O (stereo not given in full)
inactive: MDA-MB-231 > 100 µM | Malme-3M > 100 µM | SF-539 38.5 µM | BT-549 > 100 µM | U-251 32.9 µM | 786-0 69.8 µM | NCI/ADR-RES 47.6 µM | A549 33.7 µM | Hs-578T > 100 µM | NCI-H522 51.6 µM | HT-29 38.4 µM | SK-MEL-5 > 100 µM | NCI-H460 35.2 µM | MDA-N > 100 µM | TK-10 63.1 µM | M14 > 100 µM | EKVX > 100 µM | A498 > 100 µM

O=C1CNC(=O)/C(=C/c2c[nH]c3ccccc23)N1
inactive: Malme-3M > 100 µM | BT-549 > 100 µM | 786-0 > 100 µM | NCI/ADR-RES > 100 µM | A549 > 100 µM | Hs-578T > 100 µM | NCI-H522 85.3 µM | HT-29 > 100 µM | SK-MEL-5 > 100 µM | NCI-H460 > 100 µM | HOP-92 > 100 µM | MDA-N > 100 µM | TK-10 > 100 µM | M14 > 100 µM | EKVX > 100 µM | A498 > 100 µM
